Measured values published in ChEMBL document CHEMBL3991601, “The target landscape of clinical kinase drugs” (Science, 2017).
pKd: −log10 of the molar value. Calls of active or inactive are those of the source.

Columns and labels:
[1] = molecular target: Ribosomal protein S6 kinase alpha-4 (Homo sapiens, UniProt O75676)
[2] = molecular target: T1, Long-chain-fatty-acid--CoA ligase 5 (Homo sapiens, UniProt Q9ULC5)
T1 sequence (Q9ULC5 whole entry): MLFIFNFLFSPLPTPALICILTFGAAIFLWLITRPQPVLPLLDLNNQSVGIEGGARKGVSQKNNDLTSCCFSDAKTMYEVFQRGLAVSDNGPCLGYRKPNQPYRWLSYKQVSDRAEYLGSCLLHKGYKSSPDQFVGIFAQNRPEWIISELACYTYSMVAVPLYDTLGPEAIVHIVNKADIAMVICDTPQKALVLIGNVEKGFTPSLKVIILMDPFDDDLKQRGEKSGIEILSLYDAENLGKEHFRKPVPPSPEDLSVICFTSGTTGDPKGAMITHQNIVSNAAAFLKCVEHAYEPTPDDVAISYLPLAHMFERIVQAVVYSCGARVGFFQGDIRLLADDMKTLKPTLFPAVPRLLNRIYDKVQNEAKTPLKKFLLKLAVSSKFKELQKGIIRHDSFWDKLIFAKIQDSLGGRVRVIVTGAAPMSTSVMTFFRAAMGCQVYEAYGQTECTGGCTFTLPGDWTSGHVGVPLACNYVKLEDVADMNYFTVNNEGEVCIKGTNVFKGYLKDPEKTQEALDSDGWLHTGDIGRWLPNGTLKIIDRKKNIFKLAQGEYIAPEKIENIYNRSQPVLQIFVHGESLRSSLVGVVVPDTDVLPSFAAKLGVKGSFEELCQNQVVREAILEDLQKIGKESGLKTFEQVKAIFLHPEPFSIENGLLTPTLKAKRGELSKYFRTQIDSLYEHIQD

[3] = molecular target: Protein-tyrosine kinase 6 (Homo sapiens, UniProt Q13882)
[4] = molecular target: Cyclin-dependent kinase 2 (Homo sapiens, UniProt P24941)
[5] = molecular target: T2, Cytochrome c1, heme protein, mitochondrial (Homo sapiens, UniProt P08574)
T2 sequence (P08574 whole entry): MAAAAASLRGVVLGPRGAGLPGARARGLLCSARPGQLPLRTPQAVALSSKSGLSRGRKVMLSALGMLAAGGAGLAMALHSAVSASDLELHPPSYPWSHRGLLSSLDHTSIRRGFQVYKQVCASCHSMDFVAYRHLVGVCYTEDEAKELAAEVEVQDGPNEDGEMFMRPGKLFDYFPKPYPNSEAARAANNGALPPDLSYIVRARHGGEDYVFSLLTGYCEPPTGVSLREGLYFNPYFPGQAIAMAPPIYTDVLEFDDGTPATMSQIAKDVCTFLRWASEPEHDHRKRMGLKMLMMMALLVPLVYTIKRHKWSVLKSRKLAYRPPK

[6] = molecular target: T3, Probable ATP-dependent RNA helicase DDX6 (Homo sapiens, UniProt P26196)
T3 sequence (P26196 whole entry): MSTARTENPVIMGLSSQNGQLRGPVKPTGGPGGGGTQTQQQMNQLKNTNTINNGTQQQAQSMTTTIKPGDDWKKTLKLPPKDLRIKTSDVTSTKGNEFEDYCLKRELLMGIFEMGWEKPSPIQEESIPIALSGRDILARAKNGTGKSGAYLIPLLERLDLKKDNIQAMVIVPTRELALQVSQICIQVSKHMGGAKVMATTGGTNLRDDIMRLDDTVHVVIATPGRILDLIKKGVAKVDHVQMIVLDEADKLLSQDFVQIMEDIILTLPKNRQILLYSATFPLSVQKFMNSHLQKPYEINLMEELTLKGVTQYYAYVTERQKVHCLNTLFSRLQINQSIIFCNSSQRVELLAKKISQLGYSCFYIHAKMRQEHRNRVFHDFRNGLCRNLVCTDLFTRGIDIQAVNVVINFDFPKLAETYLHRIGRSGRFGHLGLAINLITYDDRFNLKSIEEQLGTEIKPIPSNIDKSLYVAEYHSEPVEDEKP

[7] = molecular target: Putative heat shock protein HSP 90-beta 2 (Homo sapiens, UniProt Q58FF8)
Myosin-14 = Myosin-14 (Homo sapiens, UniProt Q7Z406)
[8] = molecular target: Casein kinase I isoform gamma-1 (Homo sapiens, UniProt Q9HCP0)
LIM domain kinase 1 = LIM domain kinase 1 (Homo sapiens, UniProt P53667)
[9] = molecular target: Casein kinase I isoform epsilon (Homo sapiens, UniProt P49674)
[10] = molecular target: Serine/threonine-protein kinase MRCK gamma (Homo sapiens, UniProt Q6DT37)
[11] = molecular target: Casein kinase I isoform alpha (Homo sapiens, UniProt P48729)
Adenosine kinase = Adenosine kinase (Homo sapiens, UniProt P55263)
dCTP pyrophosphatase 1 = molecular target: T4, dCTP pyrophosphatase 1 (Homo sapiens, UniProt Q9H773)
T4 sequence (Q9H773 whole entry): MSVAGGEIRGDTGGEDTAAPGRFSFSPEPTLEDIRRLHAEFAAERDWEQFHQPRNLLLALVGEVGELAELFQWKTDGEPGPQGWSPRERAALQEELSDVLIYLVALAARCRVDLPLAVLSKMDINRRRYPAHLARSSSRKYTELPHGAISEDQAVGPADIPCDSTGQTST

[12] = molecular target: Cyclin-dependent kinase 6 (Homo sapiens, UniProt Q00534)
[13] = molecular target: T5, Ribosyldihydronicotinamide dehydrogenase [quinone] (Homo sapiens, UniProt P16083)
T5 sequence (P16083 whole entry): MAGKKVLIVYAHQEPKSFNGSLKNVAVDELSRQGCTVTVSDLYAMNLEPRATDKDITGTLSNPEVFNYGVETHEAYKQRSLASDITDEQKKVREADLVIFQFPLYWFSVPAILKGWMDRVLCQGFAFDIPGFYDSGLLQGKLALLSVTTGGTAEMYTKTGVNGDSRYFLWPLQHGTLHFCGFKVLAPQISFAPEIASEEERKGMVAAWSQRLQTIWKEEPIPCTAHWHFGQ

Rab-like protein 3 = molecular target: T6, Rab-like protein 3 (Homo sapiens, UniProt Q5HYI8)
T6 sequence (Q5HYI8 whole entry): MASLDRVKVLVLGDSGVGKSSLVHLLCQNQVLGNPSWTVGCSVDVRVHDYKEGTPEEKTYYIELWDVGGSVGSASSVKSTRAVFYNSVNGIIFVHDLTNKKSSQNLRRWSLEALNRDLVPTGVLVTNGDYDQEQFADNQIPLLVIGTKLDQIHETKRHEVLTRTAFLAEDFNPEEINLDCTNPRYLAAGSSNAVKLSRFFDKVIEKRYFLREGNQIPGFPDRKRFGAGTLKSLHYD
Also: in the data inactive means no Kd found up to 30 µM.

Sequence of Protein-tyrosine kinase 6 (Q13882 whole entry): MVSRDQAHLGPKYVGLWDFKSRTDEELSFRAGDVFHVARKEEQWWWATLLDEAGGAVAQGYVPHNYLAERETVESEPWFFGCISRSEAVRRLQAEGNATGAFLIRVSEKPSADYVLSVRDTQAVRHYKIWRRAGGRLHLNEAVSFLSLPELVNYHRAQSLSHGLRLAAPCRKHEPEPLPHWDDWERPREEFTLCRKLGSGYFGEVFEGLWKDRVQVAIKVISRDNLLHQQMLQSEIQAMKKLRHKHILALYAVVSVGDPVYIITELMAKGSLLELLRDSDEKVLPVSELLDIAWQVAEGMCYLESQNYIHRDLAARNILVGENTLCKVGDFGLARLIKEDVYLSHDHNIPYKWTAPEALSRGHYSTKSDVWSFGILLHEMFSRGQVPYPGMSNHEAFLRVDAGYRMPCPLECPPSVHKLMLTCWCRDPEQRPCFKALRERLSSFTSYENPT
Sequence of Casein kinase I isoform gamma-1 (Q9HCP0 whole entry, the tested form may be a part, canonical isoform): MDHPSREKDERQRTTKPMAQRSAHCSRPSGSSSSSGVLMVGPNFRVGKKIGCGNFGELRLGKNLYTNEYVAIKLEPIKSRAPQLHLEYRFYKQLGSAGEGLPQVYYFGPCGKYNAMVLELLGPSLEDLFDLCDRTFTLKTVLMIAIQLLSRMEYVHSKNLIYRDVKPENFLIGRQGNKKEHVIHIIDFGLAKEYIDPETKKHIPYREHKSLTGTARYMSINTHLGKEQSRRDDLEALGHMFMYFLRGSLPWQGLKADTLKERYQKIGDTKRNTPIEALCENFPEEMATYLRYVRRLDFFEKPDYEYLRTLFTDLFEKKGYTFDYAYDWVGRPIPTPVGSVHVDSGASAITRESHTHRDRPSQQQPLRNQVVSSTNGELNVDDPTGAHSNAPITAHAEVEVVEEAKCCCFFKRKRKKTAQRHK
Sequence of Casein kinase I isoform alpha (P48729 whole entry, canonical isoform): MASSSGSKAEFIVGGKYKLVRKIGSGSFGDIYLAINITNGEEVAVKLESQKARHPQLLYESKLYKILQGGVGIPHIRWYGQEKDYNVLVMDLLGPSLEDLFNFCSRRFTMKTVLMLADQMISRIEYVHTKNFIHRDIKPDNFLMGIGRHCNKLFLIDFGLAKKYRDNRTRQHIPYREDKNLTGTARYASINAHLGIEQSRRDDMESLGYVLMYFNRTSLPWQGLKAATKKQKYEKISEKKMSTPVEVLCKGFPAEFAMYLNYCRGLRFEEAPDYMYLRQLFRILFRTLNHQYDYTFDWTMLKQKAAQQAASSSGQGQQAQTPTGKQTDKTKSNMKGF
Sequence of LIM domain kinase 1 (P53667 whole entry, the tested form may be a part, canonical isoform): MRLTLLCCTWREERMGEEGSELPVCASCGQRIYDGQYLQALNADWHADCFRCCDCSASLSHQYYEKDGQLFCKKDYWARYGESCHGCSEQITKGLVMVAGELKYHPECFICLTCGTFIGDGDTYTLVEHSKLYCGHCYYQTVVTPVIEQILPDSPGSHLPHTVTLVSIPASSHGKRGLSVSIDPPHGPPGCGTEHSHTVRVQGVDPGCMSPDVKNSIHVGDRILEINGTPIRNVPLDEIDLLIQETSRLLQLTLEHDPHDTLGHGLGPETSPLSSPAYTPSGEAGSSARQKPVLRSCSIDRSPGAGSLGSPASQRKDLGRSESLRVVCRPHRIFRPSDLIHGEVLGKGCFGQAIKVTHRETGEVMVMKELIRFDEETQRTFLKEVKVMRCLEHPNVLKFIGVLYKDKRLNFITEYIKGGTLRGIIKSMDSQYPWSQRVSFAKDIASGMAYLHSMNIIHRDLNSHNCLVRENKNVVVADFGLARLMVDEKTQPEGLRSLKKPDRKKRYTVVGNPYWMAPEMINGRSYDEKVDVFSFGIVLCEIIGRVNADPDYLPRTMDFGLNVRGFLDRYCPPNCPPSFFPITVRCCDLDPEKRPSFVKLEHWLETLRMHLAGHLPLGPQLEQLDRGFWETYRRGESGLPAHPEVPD
Sequence of Myosin-14 (Q7Z406 whole entry, canonical isoform): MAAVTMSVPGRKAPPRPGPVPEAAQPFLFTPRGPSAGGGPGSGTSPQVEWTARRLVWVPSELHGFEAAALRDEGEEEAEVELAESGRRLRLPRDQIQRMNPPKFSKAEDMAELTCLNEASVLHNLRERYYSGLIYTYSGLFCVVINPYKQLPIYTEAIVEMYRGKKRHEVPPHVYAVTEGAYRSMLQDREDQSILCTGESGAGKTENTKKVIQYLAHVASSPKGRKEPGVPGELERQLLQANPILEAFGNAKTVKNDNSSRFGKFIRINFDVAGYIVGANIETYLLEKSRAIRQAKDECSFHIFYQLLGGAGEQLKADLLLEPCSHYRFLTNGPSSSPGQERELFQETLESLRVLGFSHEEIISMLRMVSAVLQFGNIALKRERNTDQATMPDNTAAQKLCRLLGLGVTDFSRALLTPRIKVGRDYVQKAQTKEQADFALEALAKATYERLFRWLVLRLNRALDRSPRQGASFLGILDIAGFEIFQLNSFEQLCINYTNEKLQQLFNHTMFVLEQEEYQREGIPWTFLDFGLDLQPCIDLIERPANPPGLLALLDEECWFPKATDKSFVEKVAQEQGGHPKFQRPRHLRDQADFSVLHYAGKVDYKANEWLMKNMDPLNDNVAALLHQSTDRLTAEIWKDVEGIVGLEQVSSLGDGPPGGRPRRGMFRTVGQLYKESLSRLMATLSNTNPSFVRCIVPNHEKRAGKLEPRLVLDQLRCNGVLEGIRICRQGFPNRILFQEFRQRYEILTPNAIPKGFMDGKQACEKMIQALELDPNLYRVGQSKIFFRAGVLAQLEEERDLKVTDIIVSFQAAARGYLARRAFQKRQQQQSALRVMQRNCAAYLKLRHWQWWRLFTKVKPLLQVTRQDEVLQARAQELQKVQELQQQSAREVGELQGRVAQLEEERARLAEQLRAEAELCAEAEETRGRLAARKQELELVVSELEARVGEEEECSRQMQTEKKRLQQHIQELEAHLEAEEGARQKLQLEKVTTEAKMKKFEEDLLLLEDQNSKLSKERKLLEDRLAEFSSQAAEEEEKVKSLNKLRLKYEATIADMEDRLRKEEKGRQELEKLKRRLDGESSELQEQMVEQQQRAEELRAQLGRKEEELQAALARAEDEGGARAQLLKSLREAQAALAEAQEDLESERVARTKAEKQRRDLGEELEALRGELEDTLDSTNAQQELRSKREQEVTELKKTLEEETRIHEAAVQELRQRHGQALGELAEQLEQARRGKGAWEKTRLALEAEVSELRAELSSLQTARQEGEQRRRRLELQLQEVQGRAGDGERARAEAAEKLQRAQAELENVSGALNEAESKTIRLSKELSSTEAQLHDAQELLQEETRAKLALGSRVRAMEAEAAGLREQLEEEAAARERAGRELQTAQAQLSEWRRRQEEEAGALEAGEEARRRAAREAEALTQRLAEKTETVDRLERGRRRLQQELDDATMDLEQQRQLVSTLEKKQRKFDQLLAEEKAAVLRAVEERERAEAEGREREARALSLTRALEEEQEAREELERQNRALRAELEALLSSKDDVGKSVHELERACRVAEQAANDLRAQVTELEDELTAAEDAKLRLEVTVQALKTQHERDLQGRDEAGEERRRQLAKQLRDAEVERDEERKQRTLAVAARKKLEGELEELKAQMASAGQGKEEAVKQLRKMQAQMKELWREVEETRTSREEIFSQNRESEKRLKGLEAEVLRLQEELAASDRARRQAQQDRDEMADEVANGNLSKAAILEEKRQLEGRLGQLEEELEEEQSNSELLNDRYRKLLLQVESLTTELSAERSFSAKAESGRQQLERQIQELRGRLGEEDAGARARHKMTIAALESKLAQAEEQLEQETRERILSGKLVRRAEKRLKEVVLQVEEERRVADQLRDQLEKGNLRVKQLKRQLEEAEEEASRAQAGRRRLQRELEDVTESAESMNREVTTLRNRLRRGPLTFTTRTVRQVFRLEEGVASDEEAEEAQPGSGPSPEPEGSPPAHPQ
Sequence of Ribosomal protein S6 kinase alpha-4 (O75676 whole entry): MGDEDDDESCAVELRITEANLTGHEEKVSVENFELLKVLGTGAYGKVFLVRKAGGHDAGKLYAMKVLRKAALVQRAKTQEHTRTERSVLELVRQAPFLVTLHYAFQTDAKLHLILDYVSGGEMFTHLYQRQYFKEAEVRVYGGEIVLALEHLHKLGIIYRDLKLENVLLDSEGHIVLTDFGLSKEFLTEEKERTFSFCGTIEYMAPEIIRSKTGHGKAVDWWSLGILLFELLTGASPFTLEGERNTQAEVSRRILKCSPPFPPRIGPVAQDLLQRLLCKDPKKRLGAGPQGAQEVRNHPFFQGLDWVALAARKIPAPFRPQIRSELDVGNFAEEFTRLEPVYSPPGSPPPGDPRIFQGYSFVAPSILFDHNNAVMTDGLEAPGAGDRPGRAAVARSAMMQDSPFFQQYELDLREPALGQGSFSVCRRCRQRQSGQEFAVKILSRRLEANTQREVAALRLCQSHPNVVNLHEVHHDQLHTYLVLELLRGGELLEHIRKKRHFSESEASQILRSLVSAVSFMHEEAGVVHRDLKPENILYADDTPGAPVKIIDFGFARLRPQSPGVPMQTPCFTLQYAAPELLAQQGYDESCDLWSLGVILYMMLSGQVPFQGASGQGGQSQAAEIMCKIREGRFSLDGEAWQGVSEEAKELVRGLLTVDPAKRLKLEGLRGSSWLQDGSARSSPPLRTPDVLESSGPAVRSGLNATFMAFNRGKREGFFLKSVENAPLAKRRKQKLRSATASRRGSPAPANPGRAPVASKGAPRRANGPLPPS
Sequence of Putative heat shock protein HSP 90-beta 2 (Q58FF8 whole entry): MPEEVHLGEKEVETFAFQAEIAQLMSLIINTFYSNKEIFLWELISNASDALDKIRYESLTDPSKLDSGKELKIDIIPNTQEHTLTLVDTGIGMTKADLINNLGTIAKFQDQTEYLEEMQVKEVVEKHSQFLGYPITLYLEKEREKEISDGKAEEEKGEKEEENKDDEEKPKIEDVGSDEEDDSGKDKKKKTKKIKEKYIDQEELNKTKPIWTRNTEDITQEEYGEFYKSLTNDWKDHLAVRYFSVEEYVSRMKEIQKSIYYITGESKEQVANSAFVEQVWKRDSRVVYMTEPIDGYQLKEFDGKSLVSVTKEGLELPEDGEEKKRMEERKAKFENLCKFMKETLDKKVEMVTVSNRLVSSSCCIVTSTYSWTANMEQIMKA

Compound | Kd [1] | Kd [2] | Kd [3] | Kd [4] | Kd [5] | Kd [6] | Kd [7] | Kd (Myosin-14) | Kd [8] | Kd (LIM domain kinase 1) | Kd [9] | Kd [11] | Kd (Adenosine kinase) | Kd (dCTP pyrophosphatase 1) | Kd [12] | Kd [13] | Kd (Rab-like protein 3) | Kd [10] | pKd [2] | pKd [5] | pKd (Rab-like protein 3)
O=C(Nc1ccc(OC(F)(F)F)cc1)c1sccc1NCc1ccnc2ccccc12 [OSI-930] | > 30 µM (inactive) | > 30 µM (inactive) | > 30 µM (inactive) | > 30 µM (inactive) | > 30 µM (inactive) | > 30 µM (inactive) | > 30 µM (inactive) | > 30 µM (inactive) | > 30 µM (inactive) | > 30 µM (inactive) | > 30 µM (inactive) | > 30 µM (inactive) | > 30 µM (inactive) | > 30 µM (inactive) | > 30 µM (inactive) | > 30 µM (inactive) |  | > 30 µM (inactive) |  |  | 
CNC(=O)c1cc(COc2nnc(Nc3ccc(Cl)cc3)c3ccoc23)ccn1 [TELATINIB] | > 30 µM (inactive) | > 30 µM (inactive) | > 30 µM (inactive) | > 30 µM (inactive) | > 30 µM (inactive) | > 30 µM (inactive) | > 30 µM (inactive) |  | > 30 µM (inactive) | > 30 µM (inactive) | > 30 µM (inactive) | > 30 µM (inactive) | > 30 µM (inactive) | > 30 µM (inactive) | > 30 µM (inactive) | > 30 µM (inactive) | > 30 µM (inactive) | > 30 µM (inactive) |  |  | 
Cc1c(NC(=O)OC[C@@H]2COCCN2)cn2ncnc(Nc3ccc4c(cnn4Cc4cccc(F)c4)c3)c12 [AC-480] | > 30 µM (inactive) | > 30 µM (inactive) | > 30 µM (inactive) | > 30 µM (inactive) | > 30 µM (inactive) | > 30 µM (inactive) | > 30 µM (inactive) | > 30 µM (inactive) | > 30 µM (inactive) | > 30 µM (inactive) | > 30 µM (inactive) | > 30 µM (inactive) | > 30 µM (inactive) | > 30 µM (inactive) | > 30 µM (inactive) | > 30 µM (inactive) |  | > 30 µM (inactive) |  |  | 
NC[C@@](O)(c1ccc(Cl)cc1)c1ccc(-c2cn[nH]c2)cc1 [AT-13148] | > 30 µM (inactive) | > 30 µM (inactive) | > 30 µM (inactive) | > 30 µM (inactive) | > 30 µM (inactive) | > 30 µM (inactive) | > 30 µM (inactive) | > 30 µM (inactive) | > 30 µM (inactive) | > 30 µM (inactive) | > 30 µM (inactive) | > 30 µM (inactive) | > 30 µM (inactive) | > 30 µM (inactive) | > 30 µM (inactive) | > 30 µM (inactive) |  | > 30 µM (inactive) |  |  | 
CCc1nc(C(N)=O)c(Nc2ccc(N3CCC(N4CCN(C)CC4)CC3)c(OC)c2)nc1NC1CCOCC1 [GILTERITINIB] | > 30 µM (inactive) |  | > 30 µM (inactive) | > 30 µM (inactive) |  | > 30 µM (inactive) | > 30 µM (inactive) | > 30 µM (inactive) | > 30 µM (inactive) | > 30 µM (inactive) | > 30 µM (inactive) | > 30 µM (inactive) | > 30 µM (inactive) | > 30 µM (inactive) | > 30 µM (inactive) | 1.7 µM (active) |  |  | 6.68 | 6.69 | 5.32

Continued, in another order:

Kd [1] | Kd [2] | Kd [3] | Kd [4] | Kd [5] | Kd [6] | Kd [7] | Kd (Myosin-14) | Kd [8] | Kd (LIM domain kinase 1) | Kd [9] | Kd [11] | Kd (Adenosine kinase) | Kd (dCTP pyrophosphatase 1) | Kd [12] | Kd [13] | Kd (Rab-like protein 3) | Compound | Kd [10] | pKd [2] | pKd [5] | pKd (Rab-like protein 3)
> 30 µM (inactive) | > 30 µM (inactive) | > 30 µM (inactive) | > 30 µM (inactive) | > 30 µM (inactive) | > 30 µM (inactive) | > 30 µM (inactive) | > 30 µM (inactive) | > 30 µM (inactive) | > 30 µM (inactive) | > 30 µM (inactive) | > 30 µM (inactive) | > 30 µM (inactive) | > 30 µM (inactive) | > 30 µM (inactive) | > 30 µM (inactive) | > 30 µM (inactive) | CC[C@@](C)(Nc1ccnc(-c2c[nH]c3ncccc23)n1)C(=O)NCC(F)(F)F [DECERNOTINIB] |  |  |  | 
> 30 µM (inactive) | > 30 µM (inactive) | > 30 µM (inactive) | > 30 µM (inactive) | > 30 µM (inactive) |  | > 30 µM (inactive) | > 30 µM (inactive) | > 30 µM (inactive) | > 30 µM (inactive) | 3.64 µM (active) | 1.37 µM (active) | > 30 µM (inactive) | > 30 µM (inactive) | > 30 µM (inactive) | > 30 µM (inactive) | > 30 µM (inactive) | COc1cccc(Nc2ncnn3ccc(CN4CC[C@@H](N)[C@H](O)C4)c23)c1 [BMS-690514] |  |  |  | 
> 30 µM (inactive) | > 30 µM (inactive) | > 30 µM (inactive) | > 30 µM (inactive) | > 30 µM (inactive) | > 30 µM (inactive) | > 30 µM (inactive) |  | > 30 µM (inactive) | > 30 µM (inactive) | > 30 µM (inactive) | > 30 µM (inactive) | > 30 µM (inactive) | > 30 µM (inactive) | > 30 µM (inactive) | > 30 µM (inactive) | > 30 µM (inactive) | CCOc1ccn(-c2ccc(F)cc2)c(=O)c1C(=O)Nc1ccc(Oc2ccnc(N)c2Cl)c(F)c1 [BMS-777607] |  |  |  | 
> 30 µM (inactive) | > 30 µM (inactive) | > 30 µM (inactive) | > 30 µM (inactive) | > 30 µM (inactive) | > 30 µM (inactive) | > 30 µM (inactive) | > 30 µM (inactive) | > 30 µM (inactive) | > 30 µM (inactive) | > 30 µM (inactive) | > 30 µM (inactive) | > 30 µM (inactive) | > 30 µM (inactive) | > 30 µM (inactive) | > 30 µM (inactive) | > 30 µM (inactive) | NC(=O)c1ccc(N(C(N)=O)c2c(F)cccc2F)nc1-c1ccc(F)cc1F [VX-702] |  |  |  | 
